Results taken from paper PMC12491518, “Fabrication of cytotoxic mirror image nanopores” (Nature Communications, 2025).
Where a SMILES comes first, the peptide text is derived from it. [ ]: non-standard residue; d: D form.

System: MDA-MB-231 cells
Type: cell-based, human
Conditions: 10 µM and 20 µM, 24 h, MTT, n = 3
Description: The MDA-MB-231 cell line was obtained from ATCC (Kind gift from Dr. Annapoorni Rangarajan, Indian Institute of Science, Bengaluru, Karnataka, India) and tested negative for mycoplasma contamination. Cells were cultured in DMEM (Gibco, 11965-092) supplemented with 10% FBS (Thermo Fisher Scientific, 10270-106) and Penicillin (100 Units/mL) /Streptomycin (100 µg/mL) (Thermo Fisher Scientific, 15070-063). […] Cell proliferation was measured 24 h after the addition of Peptide/ DDM using MTT assay (3-(4,5-dimethylthiazol-2-yl)-2,5-diphenyltetrazolium bromide, M6494, Thermo Fischer Scientific). […] The purple-colored formazan crystals were dissolved by adding 100 µL DMSO (D5879, Sigma Aldrich), and the absorbance at 570 nm was measured using a plate reader (EMax plus microplate reader). […]
Immunofluorescence (IF) images were analyzed to assess the impact of different treatments on cell membrane integrity. […] We evaluated a t least 100 cells for each group - Control, DDM-treated cells and peptide-treated cells- with independent analysis done by a student blinded to the groups' identity . […]
indicating a loss of cell membrane integrity. This categorization provided a clear and systematic approach to quantify the effects of various treatments on cell membrane integrity. […]

CC[C@@H](C)[C@@H](NC(=O)[C@H](N)CCSC)C(=O)N[C@H](CC(=O)O)C(=O)N[C@H](CCC(N)=O)C(=O)N[C@@H](C(=O)N[C@@H](C(=O)N[C@H](CCC(=O)O)C(=O)N[C@@H](C(=O)N[C@H](Cc1ccccc1)C(=O)NCC(=O)N[C@H](CCC(N)=O)C(=O)N[C@H](CC(C)C)C(=O)NCC(=O)N[C@@H](C(=O)N[C@H](Cc1ccccc1)C(=O)N[C@H](CC(C)C)C(=O)NCC(=O)NCC(=O)N[C@H](Cc1ccccc1)C(=O)NCC(=O)N[C@H](CC(N)=O)C(=O)N[C@@H](C(=O)N[C@H](Cc1ccccc1)C(=O)N[C@H](CCCCN)C(=O)NCC(=O)N[C@H](CC(C)C)C(=O)N[C@H](CCCCN)C(=O)N[C@H](CC(=O)O)C(=O)N[C@@H](C(=O)N[C@@H](C(=O)N[C@H](CCC(=O)O)C(=O)N[C@@H](C(=O)N[C@@H](C(=O)N[C@@H](C(=O)N[C@H](CCCCN)C(=O)N[C@H](Cc1c[nH]c2ccccc12)C(=O)N[C@@H](C(=O)N[C@H](C)C(=O)N[C@H](C)C(=O)N[C@H](CCCCN)C(=O)O)[C@H](C)O)C(C)C)[C@H](C)CC)[C@H](C)O)[C@H](C)CC)C(C)C)[C@H](C)CC)[C@H](C)O)[C@H](C)CC)[C@H](C)O)[C@H](C)CC [DpPorA] (H-[dM][dI][dD][dQ][dI][dT][dE][dI][dF]G[dQ][dL]G[dT][dF][dL]GG[dF]G[dN][dI][dF][dK]G[dL][dK][dD][dV][dI][dE][dT][dI][dV][dK][dW][dT][dA][dA][dK]-OH; N-terminus and C-terminus assumed)
change in cell viability: no significant change in viability
